In patent US20200113181A1, “HERBICIDAL COMPOUNDS” (SYNGENTA PARTICIPATIONS AG, priority 2016, published 2020):

Key:
Type in all cases: in vivo
[1] = system: soybean plants (Glycine max (GLYMX)); assay: Crop phytotoxicity, soybean plants treated post-emergence
Description: [The procedure below names another organism; the source says it served here with some conditions changed.] (§1) Seeds of a variety of test species are sown in standard soil in pots (Lolium perenne (LOLPE), Setaria faberi (SETFA), Alopecurus myosuroides (ALOMY), Echinochloa crus-galli (ECHCG), Avena fatua (AVEFA)). After cultivation for one day (pre-emergence) or after 8 days cultivation (post-emergence) under controlled conditions in a glasshouse (at 24/16° C., day/night; 14 hours light; 65% humidity), the plants are sprayed with an aqueous spray solution derived from the formulation of the technical active ingredient in acetone/water (50:50) solution containing 0.5% Tween 20 (polyoxyethelyene sorbitan monolaurate, CAS RN 9005-64-5). Compounds are applied at […]. The test plants are then grown in a glasshouse under controlled conditions in a glasshouse (at 24/16° C., day/night; 14 hours light; 65% humidity) and watered twice daily. After 13 days for pre and post-emergence, the test is evaluated for the percentage damage caused to the plant. The biological activities are shown in the following table on a five point scale (5=80-100%; 4=60-79%; 3=40-59%; 2=20-39%; 1=0-19%).

[2] = system: wheat plants (Triticum aestivum (TRZAW)); assay: Crop phytotoxicity, wheat plants treated post-emergence
Description: as §1
Using procedures outlines above, wheat plants (Triticum aestivum (TRZAW) are treated post-emergence with compound 1.2 of the present invention or compound A-18 from WO 2013/079708. The results outlined in Table B2 below show % phytotoxicity observed and that compound 1.2 of the present invention is less damaging to wheat compared to compound A-18 disclosed in WO2013/079708.

[3] = system: Avena fatua (AVEFA); assay: Glasshouse herbicide test, pre- and post-emergence, Avena fatua; settings: 250 g/h, evaluated after 13 days; for AVEFA POST, percentage damage caused to the plant (five point scale): post-emergence; for AVEFA PRE, percentage damage caused to the plant (five point scale): pre-emergence
Description: as §1

[4] = system: Setaria faberi (SETFA); assay: Glasshouse herbicide test, pre- and post-emergence, Setaria faberi; settings: 250 g/h, evaluated after 13 days; for SETFA POST, percentage damage caused to the plant (five point scale): post-emergence; for SETFA PRE, percentage damage caused to the plant (five point scale): pre-emergence
Description: as §1

[5] = system: Lolium perenne (LOLPE); assay: Glasshouse herbicide test, pre- and post-emergence, Lolium perenne; settings: 250 g/h, evaluated after 13 days; for LOLPE POST, percentage damage caused to the plant (five point scale): post-emergence; for LOLPE PRE, percentage damage caused to the plant (five point scale): pre-emergence
Description: as §1

[6] = system: Echinochloa crus-galli (ECHCG); assay: Glasshouse herbicide test, pre- and post-emergence, Echinochloa crus-galli; settings: 250 g/h, evaluated after 13 days; for ECHCG POST, percentage damage caused to the plant (five point scale): post-emergence; for ECHCG PRE, percentage damage caused to the plant (five point scale): pre-emergence
Description: as §1

[7] = system: Alopecurus myosuroides (ALOMY); assay: Glasshouse herbicide test, pre- and post-emergence, Alopecurus myosuroides; settings: 250 g/h, evaluated after 13 days; for ALOMY POST, percentage damage caused to the plant (five point scale): post-emergence; for ALOMY PRE, percentage damage caused to the plant (five point scale): pre-emergence
Description: as §1

SMILES	GLYMX % Phyto ([1]; rate 15 g/ha) [%]	GLYMX % Phyto ([1]; rate 30 g/ha) [%]	GLYMX % Phyto ([1]; rate 60 g/ha) [%]	TRZAW % Phyto ([2]; rate 4 g/ha) [%]	TRZAW % Phyto ([2]; rate 16 g/ha) [%]	TRZAW % Phyto ([2]; rate 63 g/ha) [%]	AVEFA POST, percentage damage caused to the plant (five point scale) [3]	AVEFA PRE, percentage damage caused to the plant (five point scale) [3]	SETFA POST, percentage damage caused to the plant (five point scale) [4]	SETFA PRE, percentage damage caused to the plant (five point scale) [4]	LOLPE POST, percentage damage caused to the plant (five point scale) [5]	LOLPE PRE, percentage damage caused to the plant (five point scale) [5]	ECHCG POST, percentage damage caused to the plant (five point scale) [6]	ECHCG PRE, percentage damage caused to the plant (five point scale) [6]	ALOMY POST, percentage damage caused to the plant (five point scale) [7]	ALOMY PRE, percentage damage caused to the plant (five point scale) [7]
CC#Cc1cc(C)c(C2C(=O)[C@@H]3[C@H](C2=O)[C@H]2CC[C@@H]3O2)c(C)c1 (stereo partly shown) [Compound A-18, reference compound]	40	60	80	60	100	100	–	–	–	–	–	–	–	–	–	–
CC#Cc1ccc(C2C(=O)[C@@H]3[C@H](C2=O)[C@H]2CC[C@@H]3O2)c(OC)c1 (stereo partly shown) [Compound 1.2, 4-[2-methoxy-4-(prop-1-yn-1-yl)phenyl]-10-oxatricyclo[5.2.1.0^2,6]decane-3,5-dione]	–	–	–	20	70	60	5 (5=80-100%)	5 (5=80-100%)	5 (5=80-100%)	5 (5=80-100%)	5 (5=80-100%)	5 (5=80-100%)	5 (5=80-100%)	5 (5=80-100%)	–	–
CC#Cc1ccc(C2C(=O)[C@H]3[C@@H]4CC[C@@](COC)(O4)[C@H]3C2=O)c(OC)c1 (mixture of isomers) [Compound 1.12]	–	–	–	–	–	–	5 (5=80-100%)	5 (5=80-100%)	5 (5=80-100%)	5 (5=80-100%)	5 (5=80-100%)	5 (5=80-100%)	5 (5=80-100%)	5 (5=80-100%)	5 (5=80-100%)	5 (5=80-100%)
CC#Cc1ccc(C2C(=O)[C@H]3[C@@H]4CC[C@@](C)(O4)[C@H]3C2=O)c(OC)c1 (mixture of isomers) [Compound 1.5]	–	–	–	–	–	–	5 (5=80-100%)	5 (5=80-100%)	5 (5=80-100%)	5 (5=80-100%)	5 (5=80-100%)	5 (5=80-100%)	5 (5=80-100%)	5 (5=80-100%)	5 (5=80-100%)	5 (5=80-100%)
